Values of other authors, collected in patent US20230405042A1, “Compositions to Modify Intestinal Nutrient Absorption, Methods of Making and Uses Thereof” (McMaster University, priority 2022, published 2023).

System: rodents
Settings: oral delivery or injection in rodents

Row | SMILES | Liver glycogen formation
1 | C[C@@H](O)C(=O)O [D-lactate] | leads to glycogen deposition in the liver
2 | C[C@H](O)C(=O)O [L-lactate] | hardly forms any liver glycogen
